OC[C@H]1O[C@@H](Oc2c(O)cc(O)cc2/C=C/c2ccc(O)cc2)[C@H](O)[C@@H](O)[C@@H]1O
solubility (mole fraction)
Settings | in DMF | in THF | in acetone | in acetonitrile | in ethanol | in ethyl acetate | in isopropanol | in methanol | in n-propanol
278.15 K | 0.0145 | 0.0128 | 0.0121 | 0.00281 | 0.00757 | 0.00441 | 0.00535 | 0.00794 | 0.00601
283.15 K | 0.0175 | 0.0157 | 0.0149 | 0.00349 | 0.00881 | 0.00543 | 0.00652 | 0.00978 | 0.0078
288.15 K | 0.0214 | 0.0191 | 0.0181 | 0.0043 | 0.0108 | 0.00665 | 0.00838 | 0.0121 | 0.00977
293.15 K | 0.0255 | 0.0231 | 0.0219 | 0.00526 | 0.0136 | 0.00828 | 0.01 | 0.0149 | 0.012
298.15 K | 0.0311 | 0.0277 | 0.0264 | 0.00639 | 0.0159 | 0.00987 | 0.0122 | 0.0181 | 0.014
303.15 K | 0.0369 | 0.0331 | 0.0315 | 0.00772 | 0.0199 | 0.0118 | 0.0146 | 0.0215 | 0.0166
308.15 K | 0.0442 | 0.0393 | 0.0365 | 0.00927 | 0.0232 | 0.0139 | 0.0174 | 0.0261 | 0.0196
313.15 K | 0.0522 | 0.0464 | 0.0443 | 0.0111 | 0.0281 | 0.0165 | 0.0205 | 0.0316 | 0.0228
318.15 K | 0.0614 | 0.0545 | 0.052 | 0.0131 | 0.0326 | 0.0192 | 0.0238 | 0.0377 | 0.0269
